Assay results as given in publication PMC11785708, “Design and synthesis of new quinazolinone derivatives: investigation of antimicrobial and biofilm inhibition effects” (Molecular Diversity, 2024).
Values after ≈ are worked out from the molar mass of the structure shown. Values joined by “and” are separate entries in the source; they are usually repeats but may differ in a detail not shown here. Equal values may be shown once.

Tests used:
[1] = test system: P. aeruginosa ATCC 27953; experiment: Agar well diffusion, P. aeruginosa; format: cell-based; conditions: Pseudomonas aeruginosa, ATCC27953; 100 μl of test compound 20 mg/ml in DMF; ciprofloxacin and fluconazole 30 μg/ml; 24 h; mean ± SD; read-out: diameters of inhibition zone, P. aeruginosa ATCC 27953
Protocol: (§1) The antimicrobial activity was tested against Gram positive bacteria: Bacillus cereus (B. cereus ATCC 6629), Bacillus subtilis (B. subtilis ATCC 6633), Staphylococcus aureus (S. aureus ATCC 6538), Gram negative bacteria: Klebsiella pneumoniae (K. pneumoniae ATCC 13883), Pseudomonas aeruginosa (P. aeruginosa ATCC 27953) and Candida albicans (C. albicans ATCC 10231). Glycerol stocks were thawed upon need and propagated into nutrient broth at 37 °C. The antibacterial activity of the compounds 9-32 was carried out in vitro using the agar well diffusion method, originally reported by […] and Bauer and coworkers and described by the National Committee for Clinical Laboratory Standards (NCCLS). Bacterial strains, adjusted at […] (equivalent to 0.5 McFarland), were used to inoculate nutrient agar plates. 9-mm diameter wells were punched into the solidified nutrient agar plates using sterile cork borer and 100 μl samples of the test compounds, dissolved in dimethyl formamide (DMF) at 20 mg/ml concentrations, were added and allowed to diffuse at 4 °C for 2 h. Subsequently, the plates were incubated overnight in an upright position at 37 °C. DMF was used as a negative control while ciprofloxacin and fluconazole (30 μg/ml) served as positive controls. After 24 h incubation, the diameters of the growth inhibition zones were recorded in mm. Data was expressed as mean ± standard deviation of three replicates.

[2] = Cell viability MTT assay; format: cell-based; conditions: human, BJ1 cells (normal skin fibroblasts)
Protocol: Cell viability testing at 5 mg/ml was carried out by colorimetric MTT assay on human normal cell line BJ1 (skin fibroblasts) to investigate the toxicity of the most broad spectrum derivatives 9, 15, 16, 18, 19, 20 and 29 (Table 3). The viability of the cells treated with the aforementioned derivatives was more than 87% at 5 mg/ml concentration. This gives indication that the compounds are tolerated and nontoxic for human cells, as the cytotoxic dose was higher than the therapeutic dose on most of microorganisms. It is worth mentioning that the safe limit of the percent of dead cells is not an absolute value and could be more than 10% as reported in previous studies.
The most broad spectrum compounds were evaluated for their cytotoxic activity against BJ1 cell line using colorimetric MTT [3-(4,5-dimethylthiazol-2-yl)-2,5-diphenyltetrazolium bromide] assay.

[3] = test system: P. aeruginosa ATCC 27953; experiment: MIC determination, P. aeruginosa; format: cell-based, Pseudomonas aeruginosa; conditions: serial dilutions, triplicate; for MIC: Pseudomonas aeruginosa, ATCC27953
Protocol: (§2) Serial dilutions of the test compounds were tested to determine their MIC against the most susceptible organisms. The MIC was expressed as the lowest concentration which inhibited the visible growth of the corresponding microorganism. All assays were performed in triplicate.

[4] = test system: C. albicans ATCC 10231; experiment: MIC determination, C. albicans; format: cell-based, Candida albicans; conditions: Candida albicans, ATCC10231; serial dilutions, triplicate
Protocol: as §2

[5] = test system: B. cereus ATCC 6629; experiment: MIC determination, B. cereus; format: cell-based, Bacillus cereus; conditions: serial dilutions, triplicate; for MIC: Bacillus cereus, ATCC6629
Protocol: as §2

[6] = test system: C. albicans ATCC 10231; experiment: Agar well diffusion, C. albicans; format: cell-based; conditions: Candida albicans, ATCC10231; 100 μl of test compound 20 mg/ml in DMF; ciprofloxacin and fluconazole 30 μg/ml; 24 h; mean ± SD; read-out: diameters of inhibition zone, C. albicans ATCC 10231
Protocol: as §1

[7] = test system: S. aureus ATCC 6538; experiment: MIC determination, S. aureus; format: cell-based, Staphylococcus aureus; conditions: serial dilutions, triplicate; for MIC: Staphylococcus aureus, ATCC6538
Protocol: as §2

[8] = test system: S. aureus ATCC 6538; experiment: Agar well diffusion, S. aureus; format: cell-based; conditions: Staphylococcus aureus, ATCC6538; 100 μl of test compound 20 mg/ml in DMF; ciprofloxacin and fluconazole 30 μg/ml; 24 h; mean ± SD; read-out: diameters of inhibition zone, S. aureus ATCC 6538
Protocol: as §1

[9] = test system: B. cereus ATCC 6629; experiment: Agar well diffusion, B. cereus; format: cell-based; conditions: Bacillus cereus, ATCC6629; 100 μl of test compound 20 mg/ml in DMF; ciprofloxacin and fluconazole 30 μg/ml; 24 h; mean ± SD; read-out: diameters of inhibition zone, B. cereus ATCC 6629
Protocol: as §1

[10] = test system: P. aeruginosa ATCC 27953; experiment: Inhibition of exopolysaccharide (EPS) production; format: cell-based, Pseudomonas aeruginosa; conditions: means ± standard errors
Protocol: The inhibition of exopolysaccharide production by P. aeruginosa ATCC 27953 using quinazolinone derivatives was assessed according to total carbohydrate measurement.
P. aeruginosa’s biofilm was grown in the presence or absence of compounds (19, 20). Cells were incubated for 1 h with an equal volume of 5% (v/v) phenol and 5 × volume of concentrated sulfuric acid containing 0.2% (w/v) hydrazine sulphate then centrifuged at 10,000 g for 10 min (Z 326 K, HERMLE Labortechnik GmbH, Wehingen, Germany). The optical density of the supernatant was measured at 490 nm and the reduction in EPS was calculated as follows: EPSquantification%=OD490ofcontrol-OD490oftest/OD490ofcontrol×100

[11] = test system: B. subtilis ATCC 6633; experiment: MIC determination, B. subtilis; format: cell-based, Bacillus subtilis; conditions: serial dilutions, triplicate; for MIC: Bacillus subtilis, ATCC6633
Protocol: as §2

[12] = test system: K. pneumoniae ATCC 13883; experiment: MIC determination, K. pneumoniae; format: cell-based, Klebsiella pneumoniae; conditions: serial dilutions, triplicate; for MIC: Klebsiella pneumoniae, ATCC13883
Protocol: as §2

[13] = test system: Pseudomonas aeruginosa ATCC 27953; experiment: Twitching motility assay; format: cell-based
Protocol: 5 µL of overnight-grown bacteria were stab-inoculated into Luria Bertani (LB) soft or quasi-solid plates containing 0.3% agar mixed with different concentrations of compounds 19, 20 and further incubated overnight in an upright position. The visible detectable distance of corrugated trails of twitching zones, away from the inoculation center at the petri dish-agar interface, was measured afterwards. The results were recorded as the average of several diameters’ measurements. DMF was used as a negative control. The experiments were performed in triplicate and represented as the mean of three measurements.

[14] = test system: P. aeruginosa ATCC 27953; experiment: Biofilm inhibition assay (crystal violet); format: cell-based; conditions: Pseudomonas aeruginosa, ATCC27953, P. aeruginosa ATCC 27953, 24 h
Protocol: Compounds with potential activity against P. aeruginosa ATCC 27953 were tested for the respective biofilm inhibition. The assay was carried out in microtiter plate setup using crystal violet (CV) staining of adherent cells, as modified from.
After 24 h cultivation, the supernatant and planktonic cells were discarded, wells were washed with phosphate buffered saline (PBS) and biofilms were stained with 0.1% CV. CV was subsequently washed then, solubilized with 33% (v/v) glacial acetic acid. The absorbance was measured at 540 nm using SPECTROstar® Nano microplate reader (BMG LABTECH GmbH, Germany). The experiments were performed in triplicate and independently repeated three times. GraphPad Prism 6.0 software was used to estimate the IC50 values, which correspond to […].

[15] = test system: P. aeruginosa ATCC 27953; experiment: Bacterial cell surface hydrophobicity (CSH) assay (MATH / BATH); format: cell-based, Pseudomonas aeruginosa; conditions: increasing concentrations, toluene partition (Fig. 6)
Protocol: The effect of the test compounds 19 and 20 on cell surface hydrophobicity was investigated via the microbial or bacterial adherence to hydrocarbons (MATH / BATH) assay. Exponentially growing culture of P. aeruginosa ATCC 27953 incubated with or without test compounds were centrifuged, the pellets were re-suspended and OD600 was measured using UV/Vis spectrophotometer (Jasco V-630, Tokyo, Japan) to give Ao. The re-suspended cells were vigorously mixed with toluene followed by measuring the OD600 of the aqueous phase to give At. The hydrophobicity index was calculated as follows: Hydrophobicityindex=Ao-At/Ao×100

[16] = test system: B. subtilis ATCC 6633; experiment: Agar well diffusion, B. subtilis; format: cell-based; conditions: Bacillus subtilis, ATCC6633; 100 μl of test compound 20 mg/ml in DMF; ciprofloxacin and fluconazole 30 μg/ml; 24 h; mean ± SD; read-out: diameters of inhibition zone, B. subtilis ATCC 6633
Protocol: as §1

[17] = test system: K. pneumoniae ATCC 13883; experiment: Agar well diffusion, K. pneumoniae; format: cell-based; conditions: Klebsiella pneumoniae, ATCC13883; 100 μl of test compound 20 mg/ml in DMF; ciprofloxacin and fluconazole 30 μg/ml; 24 h; mean ± SD; read-out: diameters of inhibition zone, K. pneumoniae ATCC 13883
Protocol: as §1

## O=c1c2ccccc2nc(CN2CCCC2)n1N=Cc1ccc(Cl)cc1 [Compound 16, 3-[(4-Chlorobenzylidene)amino]-2-(pyrrolidin-1-ylmethyl).quinazolin-4(3H)-one]
[1]
  zone of inhibition at 20000 µg/mL: 17 ± 0.26 mm
[2]
  viability at 5 mg/ml: 93.5 ± 1.54%
[3]
  MIC: 1500 µg/mL (≈ 4090 µM)
[4]
  MIC: 10000 ± 500 µg/mL (≈ 27300 µM)
[5]
  MIC: 2000 ± 140 µg/mL (≈ 5450 µM)
[6]
  zone of inhibition at 20000 µg/mL: 13 ± 0.29 mm
[7]
  MIC: 500 µg/mL (≈ 1360 µM)
  MIC, S. aureus ATCC 6538: 500 ± 0 µg/mL (≈ 1360 µM)
[8]
  zone of inhibition at 20000 µg/mL: 12 ± 0.08 mm
other
  melting point: 138 °C
[9]
  zone of inhibition at 20000 µg/mL: 13 ± 0.14 mm

## O=c1c2ccccc2nc(CN2CCCC2)n1N=Cc1ccc([N+](=O)[O-])cc1 [Compound 20, 3-[(4-Nitrobenzylidene)amino]-2-(pyrrolidin-1-ylmethyl)quinazolin-4(3H)-one]
[1]
  zone of inhibition at 20000 µg/mL: 21 ± 0.17 mm
[10]; 1/4 MIC
  % EPS inhibition: 21.51 ± 3.26%
[10]; 1 MIC
  % EPS inhibition: 47.84 ± 3.00%
[10]; 2 MIC
  % EPS inhibition: 61.50 ± 2.83%
[11]
  MIC: 500 µg/mL (≈ 1320 µM)
  MIC, B. subtilis ATCC 6633: 500 ± 0 µg/mL (≈ 1320 µM)
[12]
  MIC: 500 µg/mL (≈ 1320 µM)
  MIC, K. pneumoniae ATCC 13883: 500 ± 290 µg/mL (≈ 1320 µM)
[13]; starting from sub-MIC equal to half the MIC dose
  effect on twitching motility: remarkably blocked
[2]
  viability at 5 mg/ml: 88.1 ± 1.81%
[14]
  IC50: 6.86 µM and 2.59 µg/mL
[3]
  MIC: 250 µg/mL (≈ 662 µM)
  MIC, P. aeruginosa ATCC 27953: 250 ± 140 µg/mL (≈ 662 µM)
[5]
  MIC: 250 µg/mL (≈ 662 µM)
  MIC, B. cereus ATCC 6629: 250 ± 0 µg/mL (≈ 662 µM)
[15]
  effect on hydrophobicity index (CSH): reduced hydrophobicity index
[16]
  zone of inhibition at 20000 µg/mL: 10 ± 0.12 mm
[17]
  zone of inhibition at 20000 µg/mL: 16 ± 0.09 mm
[7]
  MIC: 15000 ± 500 µg/mL (≈ 39700 µM)
[8]
  zone of inhibition at 20000 µg/mL: 13 ± 0.11 mm
other
  melting point: 156 °C
[9]
  zone of inhibition at 20000 µg/mL: 16 ± 0.07 mm

## COc1cc(C=Nn2c(CN3CCCC3)nc3ccccc3c2=O)cc(OC)c1OC [Compound 19, 2-(Pyrrolidin-1-ylmethyl)-3-[(3,4,5-trimethoxybenzylidene)amino]quinazolin-4(3H)-one]
[1]
  zone of inhibition at 20000 µg/mL: 16 ± 0.18 mm
[10]; 1/4 MIC
  % EPS inhibition: 54.15 ± 4.00%
[10]; 1 MIC
  % EPS inhibition: 55.93 ± 3.31%
[10]; 2 MIC
  % EPS inhibition: 63.79 ± 2.70%
[11]
  MIC: 1000 ± 290 µg/mL (≈ 2370 µM)
[12]
  MIC: 1000 ± 290 µg/mL (≈ 2370 µM)
[13]; highest tested concentration (= MIC)
  change in twitching zone diameter: 30%
[2]
  viability at 5 mg/ml: 92.3 ± 3.37%
[14]
  IC50: 3.55 µM and 1.5 µg/mL
[3]
  MIC: 150 µg/mL (≈ 355 µM)
  MIC, P. aeruginosa ATCC 27953: 150 ± 60 µg/mL (≈ 355 µM)
[5]
  MIC: 10000 ± 500 µg/mL (≈ 23700 µM)
[15]
  effect on hydrophobicity index (CSH): no evident effect on CSH
[16]
  zone of inhibition at 20000 µg/mL: 14 ± 0.31 mm
[17]
  zone of inhibition at 20000 µg/mL: 18 ± 0.24 mm
other
  melting point: 166 °C
[9]
  zone of inhibition at 20000 µg/mL: 17 ± 0.22 mm

## O=C(O)c1cn(C2CC2)c2cc(N3CCNCC3)c(F)cc2c1=O [Ciprofloxacin, reference compound]
[1]
  zone of inhibition at 20000 µg/mL: 35 ± 0.28 mm
[10]; 1/4 MIC
  % EPS inhibition: 1.46 ± 0.28%
[10]; 1 MIC
  % EPS inhibition: 8.98 ± 0.52%
[10]; 2 MIC
  % EPS inhibition: 16.54 ± 0.61%
[10]; 2 MIC, listed as ciprofloxacin
  % EPS inhibition: ~ 16%
[16]
  zone of inhibition at 20000 µg/mL: 33 ± 0.2 mm
[17]
  zone of inhibition at 20000 µg/mL: 26 ± 0.17 mm
[8]
  zone of inhibition at 20000 µg/mL: 23 ± 0.15 mm
[9]
  zone of inhibition at 20000 µg/mL: 29 ± 0.18 mm
